Measured values published in ChEMBL document CHEMBL4049391, “Vicinal diaryl azole-based urea derivatives as potential cholesterol lowering agents acting through inhibition of SOAT enzymes” (Eur J Med Chem, 2017).
Activity calls are given as the source filed them. The calls are words filed in the database; no cut-off is given here.

What was measured:
Rattus norvegicus [1] = assay: Acute toxicity in Wistar rat assessed as effect on water intake at 2000 mg/kg, po administered as single dose measured at 6 hrs post dose; assay type: organism-based; conditions: in vivo
Rattus norvegicus [2] = assay: Acute toxicity in Wistar rat assessed as macroscopic lesions in heart at 2000 mg/kg, po administered as single dose measured up to 14 days; assay type: organism-based; conditions: in vivo, 336 h
Rattus norvegicus [3] = assay: Acute toxicity in Wistar rat assessed as effect on viscera at 2000 mg/kg, po administered as single dose measured up to 14 days; assay type: organism-based; conditions: in vivo, 336 h
Rattus norvegicus [4] = assay: Toxicity in Wistar rat assessed as adrenal toxicity at 10 to 30 mg/kg, po administered once daily measured after 4 weeks; assay type: organism-based; conditions: in vivo, 672 h
Rattus norvegicus [5] = assay: Acute toxicity in Wistar rat assessed as effect on skin color at 2000 mg/kg, po administered as single dose measured up to 14 days; assay type: organism-based; conditions: in vivo, 336 h
Rattus norvegicus [6] = assay: Acute toxicity in Wistar rat assessed as cutaneous xanthomatosis at 60 mg/kg, po administered as repeated dosing for 42 days; assay type: organism-based; conditions: in vivo, 1008 h
Rattus norvegicus [7] = assay: Toxicity in Wistar rat assessed as effect on body weight at 30 mg/kg, po administered once daily measured after 4 weeks (reference value: 290.3 +/- 8.1 g); assay type: organism-based; conditions: in vivo, 672 h
Rattus norvegicus [8] = assay: Anti-atherosclerosis activity in high cholesterol diet-induced Wistar rat atherogenesis model assessed as reduction in LDL-cholesterol level at 30 mg/kg, po administered once daily measured after 4 weeks; assay type: functional, organism-based
Rattus norvegicus [9] = assay: Anti-atherosclerosis activity in high cholesterol diet-induced Wistar rat atherogenesis model assessed as lipid accumulation lesion area in thoracic aorta at 10 mg/kg, po administered once daily measured after 4 weeks by Sudan red 4 staining based photographic method (reference value: 22.35 +/- 7.9%); assay type: functional
Rattus norvegicus [10] = assay: Anti-atherosclerosis activity in high cholesterol diet-induced Wistar rat atherogenesis model assessed as reduction in LDL-cholesterol level at 10 mg/kg, po administered once daily measured after 4 weeks; assay type: functional, organism-based
Rattus norvegicus [11] = assay: Acute toxicity in Wistar rat assessed as effect on mucus of lungs at 2000 mg/kg, po administered as single dose measured up to 14 days; assay type: organism-based; conditions: in vivo, 336 h

## CCCCNC(=O)Nc1ccc(-c2sc(C)nc2-c2ccc(C)cc2)cc1
Rattus norvegicus [1]
  Activity: Non-Toxic
Rattus norvegicus [2]
  Activity: Non-Toxic
Rattus norvegicus [3]
  Activity: Non-Toxic
Rattus norvegicus [4]
  Activity: Non-Toxic
Rattus norvegicus [5]
  Activity: Non-Toxic
Rattus norvegicus [6]
  Activity: Non-Toxic
Rattus norvegicus [7]
  Activity: 299 g
Rattus norvegicus [8]
  Activity: Active
Rattus norvegicus [9]
  Activity: 16.21%
Rattus norvegicus [10]
  Activity: inactive
Rattus norvegicus [11]
  Activity: Non-Toxic
